Paper PMC6544337, “Development of chimeric and bifunctional antagonists for CLR/RAMP receptors” (PLoS ONE, 2019)

Assays:
Type in all cases: cell-based
[1] = biological target: T1, CLR/RAMP1 (Homo sapiens, UniProt O60894+Q16602); test: CLR/RAMP1 cAMP assay, antagonist mode (CGRP challenge at EC80); settings: for Emax: maximum inhibition of CGRP-mediated signaling, in % of a positive control, read-out: CLR/RAMP1 Max Activity % of control (antagonistic)
[2] = biological target: T2, CLR/RAMP2 (Homo sapiens, UniProt O60895+Q16602); test: CLR/RAMP2 PathHunter β-arrestin assay, antagonist mode (ADM challenge at EC80); settings: for IC50: inhibition of ADM-mediated signaling, CHO-K1 cells, pre-incubation with antagonist, then agonist at EC80, β-arrestin read-out; for Emax: maximum inhibition of ADM-mediated signaling, in % of a positive control, read-out: CLR/RAMP2 Max Activity % of control (antagonistic)
Method: (§1) The bioactivity of synthetic analogs was studied using cells that stably express CLR/RAMP1 (1321N1 cells) or CLR/RAMP2 (CHO-K1 cells) receptors using CLR/RAMP1 cAMP and CLR/RAMP2 arrestin assays from DiscoveRx (Fremont, Ca). In receptor-activation assays, the dose-dependent stimulatory response was studied in duplicate, at 10 different concentrations.
(§2) The CLR/RAMP2 signaling was assayed using the CLR/RAMP2 PathHunter β-Arrestin assay. In this assay, the GPCR was fused in frame with a small enzyme donor fragment ProLink (PK) and co-expressed in cells stably expressing a fusion protein of β-arrestin and an N-terminal deletion mutant of β-galactosidase (i.e., enzyme acceptor or EA). Activation of the CLR/RAMP2 stimulates binding of β-arrestin to the PK-tagged receptor and leads to an increase in enzyme activity that can be measured using chemiluminescent PathHunter Detection Reagents. PathHunter cell lines were seeded in white walled, 384-well microplates and incubated at 37C prior to testing. For agonist determination, intermediate dilution of sample stocks was performed to generate 5X sample in assay buffer, and 5 μl of 5X sample was added to cells and incubated at 37C for 90 minutes. Vehicle concentration was 1%. For antagonistic activity determination, cells were pre-incubated with antagonist followed by agonist challenge at the EC80 concentration.

[3] = biological target: T2, CLR/RAMP2; test: CLR/RAMP2 PathHunter β-arrestin assay, agonist mode; settings: agonist mode; positive control ADM; CHO-K1 cells
Method: as §1, §2

[4] = biological target: T1, CLR/RAMP1; test: CLR/RAMP1 cAMP assay, agonist mode (DiscoveRx HitHunter cAMP XS+); settings: agonist mode; positive control CGRP; 1321N1 cells
Method: as §1
For the analysis of signaling in CLR/RAMP1-expressing cells, cAMP Hunter cell lines were expanded from freezer stocks, and cells were seeded in white walled, 384-well microplates and incubated at 37C for the appropriate time. The activity was determined using the DiscoveRx HitHunter cAMP XS+ assay. Media was aspirated from cells and replaced with 15 μl 2:1 HBSS/10mM Hepes:cAMP XS+ Ab reagent. Intermediate dilution of sample stocks was performed to generate 4X sample in assay buffer, and 5 μl of 4X sample was added to cells and incubated at 37C or room temperature for the appropriate time. Vehicle concentration was 1%.
Microplates were read with a PerkinElmer instrument for chemiluminescent signal detection.

T2 sequence (Q16602 23-461): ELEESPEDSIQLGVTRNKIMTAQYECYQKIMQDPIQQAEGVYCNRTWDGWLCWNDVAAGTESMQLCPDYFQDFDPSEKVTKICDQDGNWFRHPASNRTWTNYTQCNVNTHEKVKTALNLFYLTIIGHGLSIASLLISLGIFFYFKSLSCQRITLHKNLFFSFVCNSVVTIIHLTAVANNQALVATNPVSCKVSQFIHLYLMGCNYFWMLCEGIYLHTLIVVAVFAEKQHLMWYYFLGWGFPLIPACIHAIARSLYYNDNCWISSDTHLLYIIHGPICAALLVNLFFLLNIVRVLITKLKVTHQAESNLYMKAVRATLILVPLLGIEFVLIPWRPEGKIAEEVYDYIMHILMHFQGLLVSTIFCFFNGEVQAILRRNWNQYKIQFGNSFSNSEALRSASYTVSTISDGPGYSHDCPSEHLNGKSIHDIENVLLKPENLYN
T2 sequence (O60895 43-175): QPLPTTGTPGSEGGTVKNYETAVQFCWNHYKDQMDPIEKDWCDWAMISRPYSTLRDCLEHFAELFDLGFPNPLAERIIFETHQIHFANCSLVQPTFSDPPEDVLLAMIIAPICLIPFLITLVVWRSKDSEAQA
T1 sequence (Q16602 23-461): as the sequence (Q16602 23-461) above
T1 sequence (O60894 27-148): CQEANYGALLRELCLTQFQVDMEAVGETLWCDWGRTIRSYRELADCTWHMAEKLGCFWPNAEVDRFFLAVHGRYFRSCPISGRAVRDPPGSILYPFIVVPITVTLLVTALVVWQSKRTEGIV

| SMILES | IC50 [1] [nM] | Emax [1] [%] | IC50 [2] [nM] | Emax [2] [%] | CLR/RAMP2 Max Activity % of control [3] | CLR/RAMP1 Max Activity % of control [4] |
| --- | --- | --- | --- | --- | --- | --- |
| CC[C@H](C)[C@H](NC(=O)[C@H](CCC(N)=O)NC(=O)[C@H](Cc1c[nH]cn1)NC(=O)[C@H](C)NC(=O)[C@H](CC(C)C)NC(=O)[C@H](CCCCN)NC(=O)[C@H](CCC(N)=O)NC(=O)[C@@H](NC(=O)[C@@H](N)[C@@H](C)O)C(C)C)C(=O)N[C@@H](Cc1ccc(O)cc1)C(=O)N[C@@H](CCC(N)=O)C(=O)N[C@@H](Cc1ccccc1)C(=O)N[C@H](C(=O)N[C@@H](CC(=O)O)C(=O)N[C@@H](CCCCN)C(=O)N[C@@H](CC(=O)O)C(=O)N[C@@H](CCCCN)C(=O)N[C@@H](CC(=O)O)C(=O)N[C@@H](CC(N)=O)C(=O)N[C@H](C(=O)N[C@@H](C)C(=O)N1CCC[C@H]1C(=O)N[C@@H](CCCNC(=N)N)C(=O)N[C@@H](CO)C(=O)N[C@@H](CCCCN)C(=O)N[C@H](C(=O)N[C@@H](CO)C(=O)N1CCC[C@H]1C(=O)N[C@@H](CCC(N)=O)C(=O)NCC(=O)N[C@@H](Cc1ccc(O)cc1)C(N)=O)[C@@H](C)CC)C(C)C)[C@@H](C)O [ADM22-52, reference compound] | 6600 | 57 | 256 | 105 |  |  |
| CCCCCCCCCCCCCCCC(=O)N[C@H](C(=O)N[C@H](C(=O)N[C@@H](CCC(N)=O)C(=O)N[C@@H](CCCCN)C(=O)N[C@@H](CC(C)C)C(=O)N[C@@H](C)C(=O)N[C@@H](Cc1c[nH]cn1)C(=O)N[C@@H](CCC(N)=O)C(=O)N[C@H](C(=O)N[C@@H](Cc1ccc(O)cc1)C(=O)N[C@@H](CCC(N)=O)C(=O)N[C@@H](Cc1ccccc1)C(=O)N[C@H](C(=O)N[C@@H](CC(=O)O)C(=O)N[C@@H](CCCCN)C(=O)N[C@@H](CC(=O)O)C(=O)N[C@@H](CCCCN)C(=O)N[C@@H](CC(=O)O)C(=O)N[C@@H](CC(N)=O)C(=O)N[C@@H](CO)C(=O)N[C@@H](C)C(=O)N1CCC[C@H]1C(=O)N[C@H](C(=O)N[C@@H](CC(=O)O)C(=O)N1CCC[C@H]1C(=O)N[C@@H](CO)C(=O)N[C@@H](CO)C(=O)N1CCC[C@H]1C(=O)N[C@@H](Cc1c[nH]cn1)C(=O)N[C@@H](CO)C(=O)N[C@@H](Cc1ccc(O)cc1)C(N)=O)C(C)C)[C@@H](C)O)[C@@H](C)CC)C(C)C)[C@@H](C)O [Antagonist 1–1] |  |  |  | 100 |  |  |
| CC[C@H](C)[C@H](NC(=O)[C@H](CCCCN)NC(=O)[C@H](CO)NC(=O)[C@H](CCCNC(=N)N)NC(=O)[C@@H]1CCCN1C(=O)[C@H](C)NC(=O)[C@@H](NC(=O)[C@H](CC(N)=O)NC(=O)[C@H](CC(=O)O)NC(=O)[C@H](CCCCN)NC(=O)[C@H](CC(=O)O)NC(=O)[C@H](CCCCN)NC(=O)[C@H](CC(=O)O)NC(=O)[C@@H](NC(=O)[C@H](Cc1ccccc1)NC(=O)[C@H](CCCNC(=N)N)NC(=O)[C@H](CO)NC(=O)[C@H](CC(C)C)NC(=O)[C@H](CC(C)C)NC(=O)CNC(=O)[C@H](C)NC(=O)[C@H](CC(C)C)NC(=O)[C@H](CCCNC(=N)N)NC(=O)[C@H](Cc1c[nH]cn1)NC(=O)[C@@H](NC(=O)[C@@H](N)C(C)C)[C@@H](C)O)[C@@H](C)O)C(C)C)C(=O)N[C@@H](CO)C(=O)N1CCC[C@H]1C(=O)N[C@@H](CCC(N)=O)C(=O)NCC(=O)N[C@@H](Cc1ccc(O)cc1)C(N)=O [Antagonist 1–5] | 1880 | 99 | 117 | 100 |  |  |
| CC[C@H](C)[C@H](NC(=O)[C@H](CCC(N)=O)NC(=O)[C@H](Cc1c[nH]cn1)NC(=O)[C@H](C)NC(=O)[C@H](CC(C)C)NC(=O)[C@H](CCCCN)NC(=O)[C@H](CCC(N)=O)NC(=O)[C@@H](NC(=O)[C@@H](N)[C@@H](C)O)C(C)C)C(=O)N[C@@H](Cc1ccc(O)cc1)C(=O)N[C@@H](CCC(N)=O)C(=O)N[C@@H](Cc1ccccc1)C(=O)N[C@H](C(=O)N[C@@H](CC(=O)O)C(=O)N[C@@H](CCCCN)C(=O)N[C@@H](CC(=O)O)C(=O)N[C@@H](CCCCN)C(=O)N[C@@H](CC(=O)O)C(=O)N[C@@H](CC(N)=O)C(=O)N[C@@H](CO)C(=O)N[C@@H](C)C(=O)N1CCC[C@H]1C(=O)N[C@H](C(=O)N[C@@H](CC(=O)O)C(=O)N1CCC[C@H]1C(=O)N[C@@H](CO)C(=O)N[C@@H](CO)C(=O)N1CCC[C@H]1C(=O)N[C@@H](Cc1c[nH]cn1)C(=O)N[C@@H](CO)C(=O)N[C@@H](Cc1ccc(O)cc1)C(N)=O)C(C)C)[C@@H](C)O [Antagonist 1–4] | 1120 | 106 | 289 | 101 |  |  |
| CCCCCCCCCCCCCCCC(=O)NCC(=O)N[C@H]1CSSC[C@@H](C(=O)N[C@H](C(=O)N[C@H](C(=O)N[C@@H](CCC(N)=O)C(=O)N[C@@H](CCCCN)C(=O)N[C@@H](CC(C)C)C(=O)N[C@@H](C)C(=O)N[C@@H](Cc2c[nH]cn2)C(=O)N[C@@H](CCC(N)=O)C(=O)N[C@H](C(=O)N[C@@H](Cc2ccc(O)cc2)C(=O)N[C@@H](CCC(N)=O)C(=O)N[C@@H](Cc2ccccc2)C(=O)N[C@H](C(=O)N[C@@H](CC(=O)O)C(=O)N[C@@H](CCCCN)C(=O)N[C@@H](CC(=O)O)C(=O)N[C@@H](CCCCN)C(=O)N[C@@H](CC(=O)O)C(=O)N[C@@H](CC(N)=O)C(=O)N[C@H](C(=O)N[C@@H](C)C(=O)N2CCC[C@H]2C(=O)N[C@@H](CCCNC(=N)N)C(=O)N[C@@H](CO)C(=O)N[C@@H](CCCCN)C(=O)N[C@H](C(=O)N[C@@H](CO)C(=O)N2CCC[C@H]2C(=O)N[C@@H](CCC(N)=O)C(=O)NCC(=O)N[C@@H](Cc2ccc(O)cc2)C(N)=O)[C@@H](C)CC)C(C)C)[C@@H](C)O)[C@@H](C)CC)C(C)C)[C@@H](C)O)NC(=O)[C@H]([C@@H](C)O)NC(=O)CNC(=O)[C@H](Cc2ccccc2)NC(=O)[C@H](CCCNC(=N)N)NC1=O [Agonist 3] |  |  |  |  | 78 % of control |  |
| CSCC[C@H](NC(=O)CNC(=O)CNC(=O)[C@H](CO)NC(=O)[C@H](CCCNC(=N)N)NC(=O)[C@H](CO)NC(=O)[C@H](CC(C)C)NC(=O)[C@H](CC(C)C)NC(=O)CNC(=O)[C@H](C)NC(=O)[C@H](CC(C)C)NC(=O)[C@H](CCCNC(=N)N)NC(=O)[C@H](Cc1c[nH]cn1)NC(=O)[C@@H](NC(=O)[C@@H](NC(=O)[C@@H]1CSSC[C@H](NC(=O)[C@H](C)N)C(=O)N[C@@H](CC(N)=O)C(=O)N[C@@H]([C@@H](C)O)C(=O)N[C@@H](C)C(=O)N[C@@H]([C@@H](C)O)C(=O)N1)C(C)C)[C@@H](C)O)C(=O)N[C@H](C(=O)N[C@@H](CCCCN)C(=O)N[C@@H](CO)C(=O)N[C@@H](CC(N)=O)C(=O)N[C@@H](Cc1ccccc1)C(=O)N[C@H](C(=O)N1CCC[C@H]1C(=O)N[C@H](C(=O)N[C@@H](CC(N)=O)C(=O)N[C@H](C(=O)NCC(=O)N[C@@H](CO)C(=O)N[C@@H](CCCCN)C(=O)N[C@@H](C)C(=O)N[C@@H](Cc1ccccc1)C(N)=O)C(C)C)[C@@H](C)O)C(C)C)C(C)C [CGRP, calcitonin gene-related peptide] |  |  |  |  |  | 103 % of control |
| CC[C@H](C)[C@H](NC(=O)[C@H](CCCCN)NC(=O)[C@H](CO)NC(=O)[C@H](CCCNC(=N)N)NC(=O)[C@@H]1CCCN1C(=O)[C@H](C)NC(=O)[C@@H](NC(=O)[C@H](CC(N)=O)NC(=O)[C@H](CC(=O)O)NC(=O)[C@H](CCCCN)NC(=O)[C@H](CC(=O)O)NC(=O)[C@@H]1CCCN1C(=O)CNC(=O)[C@H](CCSC)NC(=O)[C@H](CC(C)C)NC(=O)[C@H](CCC(N)=O)NC(=O)[C@H](Cc1c[nH]c2ccccc12)NC(=O)[C@H](CC(C)C)NC(=O)[C@H](CCCNC(=N)N)NC(=O)[C@H](Cc1c[nH]cn1)NC(=O)[C@H](C)NC(=O)[C@H](CC(C)C)NC(=O)[C@H](CCCCN)NC(=O)[C@H](CCC(N)=O)NC(=O)[C@@H](NC(=O)[C@@H](N)[C@@H](C)O)C(C)C)C(C)C)C(=O)N[C@@H](CO)C(=O)N1CCC[C@H]1C(=O)N[C@@H](CCC(N)=O)C(=O)NCC(=O)N[C@@H](Cc1ccc(O)cc1)C(N)=O [Antagonist 1–6] | 152 | 101 | 7.3 | 101 |  |  |
| NCCCC[C@H](NC(=O)[C@@H](Cc1cc(Br)c(O)c(Br)c1)NC(=O)N1CCC(N2Cc3ccccc3NC2=O)CC1)C(=O)N1CCN(c2ccncc2)CC1 [BIBN4096, reference compound] |  |  |  | 0 |  |  |
